Measured values from US11236086B2, “Substituted pyrrolopyridines as inhibitors of activin receptor-like kinase” (BLUEPRINT MEDICINES CORPORATION, priority 2017, dated 2022).

Experiments:
human ALK2 R206H = biological target: T1, human ALK2 R206H (Homo sapiens, UniProt Q04771, R206H); assay: Cell-based ALK2-R206H cell activity assay (Smad1-Ser463/Ser465 phosphorylation by AlphaLISA in HEK293-ALK2-R206H cells); conditions: phospho-Smad1 AlphaLISA, read-out: Cell Line (Cell Assay, IC50 class)
T1 construct: expressed in transfected cells; host or cells: HEK293 (ATCC CRL1573), lentivirus transduction, blasticidin selection
T1 sequence (Q04771 21-509 R206H): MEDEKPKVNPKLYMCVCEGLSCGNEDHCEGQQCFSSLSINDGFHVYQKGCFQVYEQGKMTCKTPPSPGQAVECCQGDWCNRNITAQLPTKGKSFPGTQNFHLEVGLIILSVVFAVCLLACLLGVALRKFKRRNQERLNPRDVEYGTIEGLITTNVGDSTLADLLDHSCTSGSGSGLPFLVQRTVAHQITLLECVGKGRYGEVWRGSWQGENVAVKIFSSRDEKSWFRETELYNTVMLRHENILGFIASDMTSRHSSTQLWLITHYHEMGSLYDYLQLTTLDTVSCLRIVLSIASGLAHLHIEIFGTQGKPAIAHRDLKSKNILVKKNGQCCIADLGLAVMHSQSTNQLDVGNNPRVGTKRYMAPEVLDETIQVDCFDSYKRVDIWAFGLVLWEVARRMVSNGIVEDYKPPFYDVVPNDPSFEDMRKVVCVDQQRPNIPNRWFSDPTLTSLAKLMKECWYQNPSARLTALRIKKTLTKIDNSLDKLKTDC
Outline: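 IC50 comes from a 10-point curve, scaled between DMSO and 1 μM LDN193189 controls, of lysate phospho-Smad1 (Ser463/465) measured by AlphaLISA. Compounds (top 10 μM or 1 μM, 3-fold steps, duplicates) were given 2-3 h to serum-starved HEK293 cells that stably express FLAG-tagged human ALK2 R206H.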

[1] = biological target: T2, ALK2R206H (mutant ALK2, N-terminally tagged with GST) (Homo sapiens, UniProt Q04771, R206H); assay: ALK binding assay (LANTHASCREEN TR-FRET competitive binding, displacement of Kinase Tracer 178); conditions: read-out: Binding Assay (IC50 class)
T2 construct: purchased Carna Bioscience or ThermoFisher 09-148 or PV6232
T2 sequence (Q04771 21-509 R206H): T1 sequence (Q04771 21-509 R206H)
Outline: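 Competitive displacement of Kinase Tracer 178 (50 nM) from N-terminally GST-tagged mutant ALK2 R206H (2-5 nM) by compound, detected by TR-FRET with Eu-anti-GST antibody (4-10 nM). 30 min room temperature incubation, 1% DMSO final; normalized signal fitted to 4-parameter log dose response for IC50.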

IC50 (human ALK2 R206H) [nM] | IC50 [1] [nM] | SMILES
≤ 100 | ≤ 10 | CCOC(=O)N1CCN(c2ccnc3[nH]c(-c4cnn(C)c4)c(C#N)c23)CC1 [Compound 68]
≤ 100 | ≤ 10 | CCOC(=O)N1CCN(c2ccnc3[nH]c(-c4cnn(C(C)C)c4)cc23)CC1 [Compound 96]
≤ 100 | ≤ 10 | C[C@H](F)COC(=O)N1CCN(c2ccnc3[nH]c(-c4cnn(C)c4)cc23)CC1 [Compound 116]
≤ 100 | ≤ 10 | O=C(OC1COC1)N1CCN(c2ccnc3[nH]c(-c4cn5c(n4)COCC5)cc23)CC1 [Compound 302]
≤ 100 | ≤ 10 | Cc1nc(-c2[nH]c3nccc(N4CCN(C(=O)O[C@H]5C[C@H](F)C5)CC4)c3c2C#N)cn1C [Compound 357]
100 to 500 | ≤ 10 | CC(C)OC(=O)N1CCN(c2ccnc3[nH]c(-c4cnn(C)c4)c(Cl)c23)CC1 [Compound 186]
100 to 500 | ≤ 10 | Cn1ncc(-c2cc3c(N4CCN(C(=O)OC5COC5)CC4)ccnc3[nH]2)c1C(F)F [Compound 336]
100 to 500 | ≤ 10 | CCOC(=O)N1CCN(c2ccnc3[nH]c(-c4ccn(C)n4)cc23)CC1 [Compound 12]
100 to 500 | ≤ 10 | Cn1cc(-c2[nH]c3nccc(N4CCN(C(=O)C5CC5)CC4)c3c2Br)cn1 [Compound 320]
100 to 500 | ≤ 10 | Cn1cc(-c2cc3c(N4CCN(C(=O)CC5CC5)CC4)ccnc3[nH]2)cn1 [Compound 21]
≤ 100 | ≤ 10 | O=C(C1CC1)N1CCN(c2ccnc3[nH]c(-c4ccc(N5CCNC6(COC6)C5)cc4)cc23)CC1 [Compound 437]
≤ 100 | ≤ 10 | O=C(C1CC1)N1CCN(c2ccnc3[nH]c(-c4ccc(C5(O)CCCOC5)cc4)cc23)CC1 (stereo not shown) [Compound 385]
100 to 500 | ≤ 10 | CC(C)(C)c1ccc(-c2cc3c(N4CCN(C(=O)C5CC5)CC4)ccnc3[nH]2)cc1 [Compound 185]
100 to 500 | ≤ 10 | Cn1cc(-c2cc3c(N4CCN(C(=O)O[C@H]5C[C@@H](O)C5)CC4)ccnc3[nH]2)cn1 [Compound 149]
100 to 500 | ≤ 10 | CCCOC(=O)N1CCN(c2ccnc3[nH]c(-c4cnn(C)c4)cc23)CC1 [Compound 40]
≤ 100 | ≤ 10 | O=C(O[C@H]1C[C@H](F)C1)N1CCN(c2ccnc3[nH]c(-c4nc5c(s4)COCC5)cc23)CC1 [Compound 416]
≤ 100 | ≤ 10 | CCOC(=O)N1CCN(c2ccnc3[nH]c(-c4ccc(C5(OC)CCOCC5)cc4C#N)cc23)CC1 [Compound 455]
≤ 100 | ≤ 10 | CCOC(=O)N1CCN(c2ccnc3[nH]c(-c4ccc(C(C)(C)C#N)cn4)cc23)CC1 [Compound 282]
100 to 500 | ≤ 10 | CS(=O)(=O)c1ccc(-c2cc3c(N4CCN(C(=O)C5CC5)CC4)ccnc3[nH]2)cc1 [Compound 307]
≤ 100 | ≤ 10 | Cn1cnc(-c2[nH]c3nccc(N4CCN(C(=O)O[C@H]5C[C@@H](F)C5)CC4)c3c2C#N)c1 [Compound 296]
≤ 100 | ≤ 10 | COC1(c2ccc(-c3cc4c(N5CCN(C(=O)OC6COC6)CC5)ccnc4[nH]3)nc2)CCN(C[C@H](C)F)CC1 [Compound 478]
≤ 100 | ≤ 10 | O=C(OC1COC1)N1CCN(c2ccnc3[nH]c(-c4cscn4)cc23)CC1 [Compound 112]
≤ 100 | ≤ 10 | Cn1cc(-c2cc3c(N4CCN(C(=O)O[C@H]5C[C@H](F)C5)CC4)ccnc3[nH]2)cn1 [Compound 162]
≤ 100 | ≤ 10 | Cc1nc(-c2cc3c(N4CCN(C(=O)OC5CCC5)CC4)ccnc3[nH]2)cs1 [Compound 159]

IC50 (human ALK2 R206H) [nM] | IC50 [1] [nM] | SMILES
≤ 100 | ≤ 10 | CC(C)(O)c1cnc(-c2cc3c(N4CCN(C(=O)OC5COC5)CC4)ccnc3[nH]2)s1 [Compound 377]
≤ 100 | ≤ 10 | N#Cc1c(-c2cn3c(n2)COCC3)[nH]c2nccc(N3CCN(C(=O)OC4COC4)CC3)c12 [Compound 394]
100 to 500 | ≤ 10 | Cc1ncc(-c2cc3c(N4CCN(C(=O)OC5COC5)CC4)ccnc3[nH]2)o1 [Compound 103]
100 to 500 | ≤ 10 | O=C(OC1COC1)N1CCN(c2ccnc3[nH]c(-c4ccccn4)cc23)CC1 [Compound 66]
≤ 100 | ≤ 10 | CCn1cnc(-c2[nH]c3nccc(N4CCN(C(=O)OC5COC5)CC4)c3c2C#N)c1 [Compound 290]
≤ 100 | ≤ 10 | Cc1nc(-c2cc3c(N4CCN(C(=O)OC5CCC5)CC4)ccnc3[nH]2)sc1C [Compound 242]
≤ 100 | ≤ 10 | CCN1CCN(c2ccc(-c3cc4c(N5CCN(C(=O)C6CC6)CC5)ccnc4[nH]3)c(Cl)c2)CC1 [Compound 456]
≤ 100 | ≤ 10 | CCN1CCN(c2ccc(-c3cc4c(N5CCN(C(=O)C6CC6)CC5)ccnc4[nH]3)c(OC(F)(F)F)c2)CC1 [Compound 477]
100 to 500 | ≤ 10 | CCOC(=O)N1CCN(c2ccnc3[nH]c(-c4cn(C)nc4F)cc23)CC1 [Compound 51]
≤ 100 | ≤ 10 | Cc1nc(-c2cc3c(N4CCN(C(=O)OCC(F)F)CC4)ccnc3[nH]2)sc1C [Compound 291]
≤ 100 | ≤ 10 | Cc1nc(-c2[nH]c3nccc(N4CCN(C(=O)OC5CC5)CC4)c3c2C#N)cn1C [Compound 201]
≤ 100 | ≤ 10 | N#CC1(c2ccc(-c3cc4c(N5CCN(C(=O)C6CC6)CC5)ccnc4[nH]3)cc2)CC1 [Compound 241]
≤ 100 | ≤ 10 | N#Cc1c(-c2nc3c(s2)COCC3)[nH]c2nccc(N3CCN(C(=O)OC4COC4)CC3)c12 [Compound 434]
≤ 100 | ≤ 10 | CN1CCN(c2ccc(-c3cc4c(N5CCN(C(=O)C6CC6)CC5)ccnc4[nH]3)cn2)CC1 [Compound 382]
≤ 100 | ≤ 10 | CCOC(=O)N1CCN(c2ccnc3[nH]c(-c4cnn(C)c4)c(Br)c23)CC1 [Compound 341]
≤ 100 | ≤ 10 | Cn1cc(-c2[nH]c3nccc(N4CCN(C(=O)OC5COC5)CC4)c3c2C#N)cn1 [Compound 207]
≤ 100 | ≤ 10 | Cn1cc(-c2[nH]c3nccc(N4CCN(C(=O)[C@H]5CC[C@H](C#N)CC5)CC4)c3c2Cl)cn1 [Compound 397]
100 to 500 | ≤ 10 | Cn1ncc(-c2[nH]c3nccc(N4CCN(C(=O)OC5COC5)CC4)c3c2C#N)n1 [Compound 215]
100 to 500 | ≤ 10 | O=C(OC1COC1)N1CCN(c2ccnc3[nH]c(-c4cnn(C5COC5)c4)cc23)CC1 [Compound 300]
≤ 100 | ≤ 10 | CCN1CCN(c2ccc(-c3cc4c(N5CCN(C(=O)C6CCC6)CC5)ccnc4[nH]3)cc2)CC1 [Compound 439]
≤ 100 | ≤ 10 | Cn1cnc(-c2[nH]c3nccc(N4CCN(C(=O)O[C@H]5C[C@H](F)C5)CC4)c3c2C#N)c1 [Compound 297]
100 to 500 | ≤ 10 | CC(C)(O)c1nc(-c2cc3c(N4CCN(C(=O)OC5COC5)CC4)ccnc3[nH]2)cs1 [Compound 378]
100 to 500 | ≤ 10 | CCc1csc(-c2cc3c(N4CCN(C(=O)OC5COC5)CC4)ccnc3[nH]2)n1 [Compound 251]
